Assay results: article PMC4965148 (PLoS ONE, 2016)
Values joined by “and” are separate entries in the source; they are usually repeats but may differ in a detail not shown here. Equal values may be shown once.

Tests used:
[1] = tested on: MK-801 treated Sprague Dawley rats; assay: Rat MK-801 set shift procedure; format: in vivo
Method: Studies followed the methods described in detail in [19] and are briefly summarized here. All rats were singly housed and food-restricted (15g/rat/day) for 7 days prior to initiation of training and for the duration of the study. At the time of testing, the average (± SEM) body weight for individual treatment groups ranged from 168 ± 4 g to 180 ± 6 g. Prior to the study several habituation sessions were conducted to familiarize subjects to the maze and task requirements. The maze consisted of 4 arms (40 cm long x 14 cm wide x 20 cm high) arranged in a ‘+’ configuration and the walls and floor of each arm were distinct and colored either black or white with either a rough or smooth texture (i.e. 1 arm with each of the following combinations: white/smooth, white/rough, black/smooth, black/rough). […] The arm opposite the blocked arm was designated as the ‘start arm’ and only 1 of the 2 remaining arms was baited with food pellets. The set shift procedure comprised 2 test sessions conducted over 2 consecutive days. On the first day (Set 1) rats were required to learn the association of either the color or texture of the maze arms with the location of a food reward. Animals were randomly assigned a correct exemplar within a given dimension as being predictive of reward with 50% of the rats assigned color and 50% assigned texture. Each rat was given a maximum of 120 trials on the maze which was rotated 90 degrees between successive trials so that the adjacent arms now became either the ‘start arm’ or the arm that was blocked. Animals were allowed to visit 1 of the 2 open arms and the trial recorded as correct if the arm with the pre-assigned exemplar was visited and the food reward retrieved. The inter-trial interval was 15 s. Rats were required to achieve a performance criterion of 8 consecutive entries into the rewarded arm at which point testing stopped and the animal was presumed to have learnt the association between the correct exemplar in the assigned dimension and food reward. On day 2 (Set 2) animals were again tested in the maze configured as described for Set 1 with the exception that the dimension predicting food reward was now switched (i.e. animals trained on color for Set 1 were switched to texture and visa versa). Correct performance was again defined as 8 consecutive entries into the rewarded arm with a maximal number of 80 trials allowed. All dosing was administered on day 2 prior to Set 2 testing.

Adrenergic α2A = Adrenergic α2A (Homo sapiens, UniProt P08913); assay: Selectivity panel, binding
Nav1.5 = Nav1.5 (Homo sapiens, UniProt Q14524); assay: Selectivity panel, functional; format: cell-based
Histamine H1 = Histamine H1 (Homo sapiens, UniProt P35367); assay: Selectivity panel, binding
Opiate Kappa = Opiate Kappa (Homo sapiens, UniProt P41145); assay: Selectivity panel, binding
C57Bl/6 mice = assay: Mouse 24 h novel object recognition; format: in vivo
Method: The procedure followed a 3 day protocol. On day 1 (habituation) individual mice were habituated to the testing chamber (a white PVC box 48 cm long x 38 cm wide x 20 cm high with brown linoleum flooring) for 15 min then returned to their home cage. On day 2 (training) individual mice were returned to the testing chamber containing 2 identical objects and allowed to explore. The training session lasted for up to 15 min or until the mouse explored the objects for a total of 60 s. A maximal trial duration of 15 min was used to accommodate mice that are slower to initiate exploration. On day 3 (testing) individual mice were returned to the testing chamber 24 h later containing 1 familiar object encountered in the previous training session and one novel object. The testing session lasted up to 10 min or until the mouse explored the objects for a total of 60 s. The objects used for these studies were made of duplex legos approximately 3 inches high x 1 inch wide; one object was a multicolored rectangle and the second object was a solid color rectangle with a short arm attached. The location of the objects was counterbalanced between animals but was consistent within animals so that only the object itself was novel on the test session. The familiar object used during the test session was the same object used during training and all objects were thoroughly cleaned between sessions and between subjects. Animal behavior was video recorded during both training and testing and the amount of time spent exploring the objects determined using Cleversys software. Object exploration was only scored when the animal’s nose was within 1 cm of the object. […] The vehicle was chosen for sc dosing to ensure that BMS-933043 was dosed as a solution and not a suspension. […] For each subject the % discrimination index (DI) was calculated for both the training and test session as follows: %DI training = (time exploring object 1—time exploring object 2)/(total time exploring object 1 + object 2) X 100; %DI testing = (time exploring novel object—time exploring familiar object)/(total time exploring novel + familiar object) X 100.

[2] = target: T1, HEK293/rat α7 nAChR cells (Rattus norvegicus, UniProt Q05941); assay: Whole cell voltage clamp electrophysiology; format: cell-based; conditions: for Net Charge (Current Area) normalized to 300 µM ACh / Peak Current normalized to 3 mM ACh: individual cells; for mean ± SEM peak current Ymax: n = 5
T1 construct: expressed in transfected cells
Method: Whole-cell voltage clamp studies were conducted on HEK293/rat α7 or HEK293/human α7 nAChR cells. […] Atropine (1 μM) was included in the bathing solution. […] Cells were voltage clamped at a holding potential of -90 mV. Using the Dynaflow microfluidic perfusion system (Cellectricon; flow 26 μl/min) responses to a 300 ms application of ACh or α7 nAChR agonists were measured. Currents were filtered at 2 kHz and sampled at 10 kHz using an EPC-9 amplifier and HEKA Pulse/Patchmaster software. […] The peak current amplitude and net charge crossing the membrane (i.e. the area under the current response curve) induced by agonist application were measured using Clampfit (pClamp Suite) and normalized to the maximal response induced by ACh (3 mM ACh for peak current amplitude and 300 μM ACh for net charge).

Muscarinic M4 = Muscarinic M4 (Homo sapiens, UniProt P08173); assay: Selectivity panel, binding; conditions: read-out: % inhibition @ 10 µM
Adrenergic α1B = Adrenergic α1B (Homo sapiens, UniProt P35368); assay: Selectivity panel, binding
Glucocorticoid receptor = Glucocorticoid receptor (Homo sapiens, UniProt P04150); assay: Selectivity panel, binding
[3] = tested on: neonatal PCP treated rats; assay: Rat neonatal PCP mismatch negativity
Excerpt: Adult male rats treated neonatally with PCP were implanted with epidural screw electrodes at the following co-ordinates under isoflurane anesthesia: 6 mm rostral and 1 mm off midline to the left from bregma; 5.5 mm rostral to interaural line and 1 mm off to the right from midline. Following recovery EEG recordings were collected from conscious rats housed in individual sound attenuated chambers (Med Associates, St Albans, VT) with the recording electrodes tethered through a low torque commutator system (Plastics One Inc, Roannoke, VA) to a differential amplifier (gain x1000; Warner Instruments, Hamden, CT). […] Baseline EEG was first recorded using Spike v5.19 or later software (CED, Cambridge, UK) to ensure electrical connectivity and an acceptable EEG signal. A simultaneous video was used to assess the general state of the animals during the recordings. […] Tones (70 dB) were delivered through a speaker mounted in the top center of the housing chamber and presented at 450 ms intervals. In each experimental session 700 standard and 100 deviant tones were presented. Data were analyzed using Signal v4.09 software (CED, Cambridge, UK). Artifact free trials were visually identified, corrected for baseline shift using the first 100 ms of the pre-stimulus baseline, 30 Hz low-pass filtered using a second order Butterworth digital filter and averaged to give evoked potential for each subject.

5-HT2B = 5-HT2B (Homo sapiens, UniProt P41595); assay: Selectivity panel, functional; format: cell-based
Adenosine A2a = Adenosine A2a (Homo sapiens, UniProt P29274); assay: Selectivity panel, binding
Muscarinic M5 = Muscarinic M5 (Homo sapiens, UniProt P08912); assay: Selectivity panel, binding; conditions: read-out: % inhibition @ 10 µM
Muscarinic M5, sequence (P08912 whole entry): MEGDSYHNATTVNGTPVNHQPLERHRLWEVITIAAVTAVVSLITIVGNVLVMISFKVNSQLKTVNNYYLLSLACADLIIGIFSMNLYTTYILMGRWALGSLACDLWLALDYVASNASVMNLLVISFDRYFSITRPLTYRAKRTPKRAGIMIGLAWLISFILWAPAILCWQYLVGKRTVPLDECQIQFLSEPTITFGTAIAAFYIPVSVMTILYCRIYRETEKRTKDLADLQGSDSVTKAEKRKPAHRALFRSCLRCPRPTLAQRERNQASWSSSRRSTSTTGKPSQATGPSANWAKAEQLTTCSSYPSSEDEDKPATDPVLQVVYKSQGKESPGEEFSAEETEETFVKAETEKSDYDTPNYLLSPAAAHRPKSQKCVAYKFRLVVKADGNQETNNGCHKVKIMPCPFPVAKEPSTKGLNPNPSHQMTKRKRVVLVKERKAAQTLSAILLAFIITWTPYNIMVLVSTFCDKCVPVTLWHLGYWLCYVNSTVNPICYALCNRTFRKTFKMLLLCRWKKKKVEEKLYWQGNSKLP

T1 sequence (Q05941 23-502): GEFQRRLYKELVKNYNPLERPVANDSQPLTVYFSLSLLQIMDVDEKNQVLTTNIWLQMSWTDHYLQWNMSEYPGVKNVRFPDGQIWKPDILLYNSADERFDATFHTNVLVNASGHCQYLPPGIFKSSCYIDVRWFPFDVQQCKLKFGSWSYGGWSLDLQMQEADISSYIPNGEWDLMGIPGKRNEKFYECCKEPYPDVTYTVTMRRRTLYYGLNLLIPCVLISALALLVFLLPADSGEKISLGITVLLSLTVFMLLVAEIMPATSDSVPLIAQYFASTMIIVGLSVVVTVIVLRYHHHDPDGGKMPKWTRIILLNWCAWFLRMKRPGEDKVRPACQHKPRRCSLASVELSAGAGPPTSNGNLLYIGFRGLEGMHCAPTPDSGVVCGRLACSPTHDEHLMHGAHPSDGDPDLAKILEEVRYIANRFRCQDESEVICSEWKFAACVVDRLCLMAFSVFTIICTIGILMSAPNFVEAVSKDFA
Adenosine A2a, sequence (P29274 whole entry): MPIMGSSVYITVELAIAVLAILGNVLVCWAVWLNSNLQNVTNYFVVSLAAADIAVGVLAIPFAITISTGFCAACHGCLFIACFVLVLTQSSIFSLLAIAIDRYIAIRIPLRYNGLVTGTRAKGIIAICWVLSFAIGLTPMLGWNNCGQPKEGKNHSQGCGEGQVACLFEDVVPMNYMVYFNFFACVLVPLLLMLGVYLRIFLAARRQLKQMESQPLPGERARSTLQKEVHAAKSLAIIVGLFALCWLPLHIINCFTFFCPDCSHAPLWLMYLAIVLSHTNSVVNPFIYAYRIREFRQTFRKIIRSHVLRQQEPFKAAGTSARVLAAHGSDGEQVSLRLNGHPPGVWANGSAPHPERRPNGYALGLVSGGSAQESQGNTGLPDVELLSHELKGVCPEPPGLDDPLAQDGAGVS
Adrenergic α1B, sequence (P35368 whole entry): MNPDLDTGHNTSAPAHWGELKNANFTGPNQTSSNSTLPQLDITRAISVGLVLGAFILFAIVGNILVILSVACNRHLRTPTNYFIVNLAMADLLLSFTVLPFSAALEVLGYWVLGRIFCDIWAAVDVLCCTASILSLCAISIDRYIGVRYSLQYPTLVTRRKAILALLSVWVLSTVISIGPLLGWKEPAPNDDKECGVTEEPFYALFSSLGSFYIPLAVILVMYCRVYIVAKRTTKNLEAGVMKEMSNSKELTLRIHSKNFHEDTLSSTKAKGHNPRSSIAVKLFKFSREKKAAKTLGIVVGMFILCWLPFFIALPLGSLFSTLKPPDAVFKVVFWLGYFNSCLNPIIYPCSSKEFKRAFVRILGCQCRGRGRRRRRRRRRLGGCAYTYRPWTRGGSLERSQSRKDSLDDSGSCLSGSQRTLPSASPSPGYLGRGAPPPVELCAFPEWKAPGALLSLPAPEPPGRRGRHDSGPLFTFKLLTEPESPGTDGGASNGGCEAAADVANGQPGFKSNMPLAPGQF
Opiate Kappa, sequence (P41145 whole entry): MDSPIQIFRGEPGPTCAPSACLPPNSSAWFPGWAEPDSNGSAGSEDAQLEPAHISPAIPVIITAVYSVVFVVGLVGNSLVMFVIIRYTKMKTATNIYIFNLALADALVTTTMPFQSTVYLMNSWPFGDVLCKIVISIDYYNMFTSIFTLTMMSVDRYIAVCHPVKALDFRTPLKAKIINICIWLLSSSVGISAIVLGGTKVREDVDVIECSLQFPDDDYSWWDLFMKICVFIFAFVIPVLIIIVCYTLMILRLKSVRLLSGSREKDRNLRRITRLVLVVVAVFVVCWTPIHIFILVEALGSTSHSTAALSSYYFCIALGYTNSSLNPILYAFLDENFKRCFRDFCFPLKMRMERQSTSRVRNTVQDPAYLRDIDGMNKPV
Adrenergic α2A, sequence (P08913 whole entry): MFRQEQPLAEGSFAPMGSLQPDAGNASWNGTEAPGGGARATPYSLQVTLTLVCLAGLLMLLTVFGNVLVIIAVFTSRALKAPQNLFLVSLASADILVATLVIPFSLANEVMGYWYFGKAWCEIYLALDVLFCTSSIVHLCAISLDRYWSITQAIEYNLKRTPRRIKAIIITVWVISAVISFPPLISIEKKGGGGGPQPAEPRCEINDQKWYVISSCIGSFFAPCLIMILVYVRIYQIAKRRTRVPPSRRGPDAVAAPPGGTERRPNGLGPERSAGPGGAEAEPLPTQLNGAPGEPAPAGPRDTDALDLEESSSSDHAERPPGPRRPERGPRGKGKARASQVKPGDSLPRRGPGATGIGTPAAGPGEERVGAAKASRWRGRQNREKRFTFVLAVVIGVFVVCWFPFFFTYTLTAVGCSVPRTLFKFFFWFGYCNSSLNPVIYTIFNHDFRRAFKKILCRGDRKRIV
Muscarinic M4, sequence (P08173 whole entry): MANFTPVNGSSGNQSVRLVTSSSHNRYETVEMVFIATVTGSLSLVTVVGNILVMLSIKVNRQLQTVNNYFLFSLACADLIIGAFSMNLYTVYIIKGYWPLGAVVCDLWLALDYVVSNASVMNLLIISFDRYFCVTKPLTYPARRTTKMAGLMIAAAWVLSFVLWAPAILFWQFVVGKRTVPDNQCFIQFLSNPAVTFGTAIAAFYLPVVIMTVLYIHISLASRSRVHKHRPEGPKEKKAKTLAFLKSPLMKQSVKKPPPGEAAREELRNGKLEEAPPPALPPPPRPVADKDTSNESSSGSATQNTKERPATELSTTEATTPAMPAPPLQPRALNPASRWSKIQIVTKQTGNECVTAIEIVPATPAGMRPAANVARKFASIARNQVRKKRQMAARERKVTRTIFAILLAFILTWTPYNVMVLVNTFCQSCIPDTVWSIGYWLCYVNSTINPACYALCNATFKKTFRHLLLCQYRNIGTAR
5-HT2B, sequence (P41595 whole entry): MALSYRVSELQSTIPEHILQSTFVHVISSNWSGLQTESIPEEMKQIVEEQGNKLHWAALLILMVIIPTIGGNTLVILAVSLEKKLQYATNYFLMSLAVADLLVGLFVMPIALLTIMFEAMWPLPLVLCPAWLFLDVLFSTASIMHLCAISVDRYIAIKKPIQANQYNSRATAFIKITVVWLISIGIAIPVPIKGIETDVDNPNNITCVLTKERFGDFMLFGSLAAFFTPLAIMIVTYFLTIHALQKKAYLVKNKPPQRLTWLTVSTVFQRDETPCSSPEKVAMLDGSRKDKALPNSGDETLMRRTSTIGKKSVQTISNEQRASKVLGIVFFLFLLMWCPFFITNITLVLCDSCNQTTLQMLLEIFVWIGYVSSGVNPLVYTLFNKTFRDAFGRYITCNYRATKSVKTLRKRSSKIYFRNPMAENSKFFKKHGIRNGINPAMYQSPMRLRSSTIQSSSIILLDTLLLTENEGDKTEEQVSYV
Histamine H1, sequence (P35367 whole entry): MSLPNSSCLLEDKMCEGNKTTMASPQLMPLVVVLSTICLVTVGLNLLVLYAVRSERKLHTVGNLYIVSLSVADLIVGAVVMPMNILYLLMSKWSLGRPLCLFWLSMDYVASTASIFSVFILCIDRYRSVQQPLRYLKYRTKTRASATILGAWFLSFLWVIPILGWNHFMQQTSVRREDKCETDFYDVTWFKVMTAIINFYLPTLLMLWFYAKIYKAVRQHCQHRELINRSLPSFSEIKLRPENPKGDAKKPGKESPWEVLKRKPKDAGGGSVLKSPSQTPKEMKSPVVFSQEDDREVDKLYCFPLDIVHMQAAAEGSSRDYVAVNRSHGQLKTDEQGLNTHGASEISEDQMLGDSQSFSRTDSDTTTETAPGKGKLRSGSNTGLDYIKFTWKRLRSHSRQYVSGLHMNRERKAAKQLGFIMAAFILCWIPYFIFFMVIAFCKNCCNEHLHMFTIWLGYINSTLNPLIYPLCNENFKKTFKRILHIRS

With `c1cn(-c2cc(NC3=NC[C@@]4(CN5CCC4CC5)O3)ncn2)cn1` [BMS-933043, (2R)-N-(6-(1H-imidazol-1-yl)-4-pyrimidinyl)-4'H-spiro[4-azabicyclo[2.2.2]octane-2,5'-[1,3]oxazol]-2'-amine] the “Number of trials to criteria Mean ± SEM” value ([1]; 0.3 mg/kg po / MK-801, 0.3-3 mg/kg study) was 66.4 ± 3.2, the “Number of trials to criteria Mean ± SEM” value ([1]; 1 mg/kg po / MK-801, 0.3-3 mg/kg study) was 54.4 ± 4.8 and the “Number of trials to criteria Mean ± SEM” value ([1]; 3 mg/kg po / MK-801, 0.3-3 mg/kg study) was 50.3 ± 4.3. For the same compound, the “Number of trials to criteria Mean ± SEM” value ([1]; 3 mg/kg po / MK-801, 3-30 mg/kg study) was 48.3 ± 5.8, the “Number of trials to criteria Mean ± SEM” value ([1]; 10 mg/kg po / MK-801, 3-30 mg/kg study) was 54.0 ± 3.2 and the “Number of trials to criteria Mean ± SEM” value ([1]; 30 mg/kg po / MK-801, 3-30 mg/kg study) was 68.0 ± 4.7. The “perseverative errors in MK-801-treated animals” value ([1]; po) was “decreased perseverative errors”, the IC50 (Adrenergic α2A) was over 30 µM and the IC50 (Nav1.5) was over 30 µM. For the same compound, the IC50 (Histamine H1) was over 30 µM, the IC50 (Opiate Kappa) was over 30 µM and the “total object exploration time in training or testing session” value (C57Bl/6 mice; mice) was “does not alter total object exploration time”. For the same compound, the “effective dose range, 24 h novel object recognition” value (C57Bl/6 mice; sc, 30 min prior to training) was 0.1 to 10 mg/kg, the EC50 [2] was 0.14 ± 0.03 µM and the “Net Charge (Current Area) normalized to 300 µM ACh” value ([2]; 0.1 µM) was 0.00864 and -0.014 and 0.05917 and 0.0877. For the same compound, the “Peak Current normalized to 3 mM ACh” value ([2]; 0.1 µM) was 0.01158 and 0.01083 and 0.01236 and 0.0131, the “Net Charge (Current Area) normalized to 300 µM ACh” value ([2]; 0.3 µM) was 0.4138 and 0.2853 and 0.4739 and 0.5256 and the “Peak Current normalized to 3 mM ACh” value ([2]; 0.3 µM) was 0.04784 and 0.02829 and 0.03284 and 0.03669. The “Net Charge (Current Area) normalized to 300 µM ACh” value ([2]; 1 µM) was 0.7172 and 0.3555 and 0.6626 and 0.6549, the “Peak Current normalized to 3 mM ACh” value ([2]; 1 µM) was 0.07111 and 0.07356 and 0.0749 and 0.08082 and the “Net Charge (Current Area) normalized to 300 µM ACh” value ([2]; 3 µM) was 0.7919 and 0.4794 and 0.6677 and 0.6569. For the same compound, the “Peak Current normalized to 3 mM ACh” value ([2]; 3 µM) was 0.1558 and 0.1519 and 0.1651 and 0.1365, the “Net Charge (Current Area) normalized to 300 µM ACh” value ([2]; 10 µM) was 0.8266 and 0.4637 and 0.7322 and 0.6673 and the “Peak Current normalized to 3 mM ACh” value ([2]; 10 µM) was 0.2731 and 0.2904 and 0.2952 and 0.2153. The “mean ± SEM peak current Ymax” value ([2]; BMS-933043 10 μM alone) was 0.26 ± 0.03, the “mean ± SEM peak current Ymax” value ([2]; BMS-933043 10 μM in the presence of 10 nM MLA) was 0.02 ± 0.003 and the “Mean ± SEM Net Charge Ymax” value ([2]; Rat, normalized to 300 μM ACh) was 0.67 ± 0.07. The “Mean ± SEM Peak Current Ymaxobs @ 10 μM” value ([2]; Rat, normalized to 3 mM ACh) was 0.27 ± 0.02, the inhibition at 10 µM (Muscarinic M4) was 10% and the IC50 (Adrenergic α1B) was over 30 µM. For the same compound, the IC50 (Glucocorticoid receptor) was over 150 µM, the “deviance detection (MMN)” value ([3]; 0.3 mg/kg sc) was “just failing to achieve statistical significance” and the “AUC (150-200 ms) of difference wave, Mean” value ([3]; Study 1, 0.01 mg/kg sc) was -6.608e-005. For the same compound, the “AUC (150-200 ms) of difference wave, Mean” value ([3]; Study 1, 0.1 mg/kg sc) was -0.0001188, the “AUC (150-200 ms) of difference wave, Mean” value ([3]; Study 2, 0.03 mg/kg sc) was -0.0002362 and the “AUC (150-200 ms) of difference wave, Mean” value ([3]; Study 2, 0.1 mg/kg sc (so in the source)) was -0.0001715. The “AUC (150-200 ms) of difference wave, Mean” value ([3]; Study 3, 1 mg/kg sc) was -0.000159, the “AUC (150-200 ms) of difference wave, Mean” value ([3]; Study 3, 3 mg/kg sc) was -0.0001341 and the “deviance detection (MMN)” value ([3]; doses of 0.03, 0.1, 1 and 3 mg/kg sc) was “significant deviance detection from a hypothetical zero”. The “Active dose range, Neonatal PCP MMN” value ([3]; sc) was 0.03–3.0 (sc) mg/kg, the EC50 (5-HT2B) was over 10 µM and the IC50 (Adenosine A2a) was over 30 µM. The inhibition at 10 µM (Muscarinic M5) was 8%.
